From patent US9617256B2 (priority 2007, dated 2017)
In brackets after ≈: the same amount, converted by molar mass.

How the values were obtained:
AECO001 HSA AGP = experiment: MIC broth microdilution, AECO001 HSA AGP; format: cell-based, E. coli; details: Escherichia coli
In short: (§1)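 Incubation: 35° C., ambient air, 18-24 h. Medium: cation-adjusted Mueller-Hinton broth with 2-fold serial dilutions of drug. Inoculum: 3×10^5–7×10^5 CFU/mL final, per CLSI microdilution method.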

[1] = test system: AECO063 (ATCC25922 bearing an acrAB mutation); experiment: microbe, parasite or virus in culture; format: cell-based, E. coli; details: Escherichia coli, ATCC25922, read-out: MIC AECO063
In short: as §1

[2] = test system: APAE006 in the presence of 8 micrograms per milliliter of polymyxin B nonapeptide; format: cell-based, P. aeruginosa; details: in the presence of 8 micrograms per milliliter of polymyxin B nonapeptide
In short: (§2)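 CLSI broth microdilution in cation-adjusted Mueller-Hinton broth, final inoculum 3×10^5–7×10^5 CFU/mL, 2-fold drug dilutions, 18-24 hours at 35° C. in ambient air. APAE006 is an efflux-pump-inactivated P. aeruginosa strain. Assay performance monitored with QC strains and levofloxacin.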

[3] = test system: ASAU001 (laboratory strain of S. aureus, ATCC29213); experiment: MIC broth microdilution, ASAU001; format: cell-based; details: Staphylococcus aureus, ATCC29213, read-out: MIC ASAU001
In short: as §1

[4] = test system: AABA1060 (clinical isolate of Acinetobacter baumannii); experiment: MIC broth microdilution, AABA1060; format: cell-based; details: Acinetobacter baumannii, read-out: MIC AABA1060
In short: as §1

APAE001 (ATCC27853) = experiment: MIC broth microdilution, APAE001; format: cell-based, P. aeruginosa; details: Pseudomonas aeruginosa, ATCC27853, read-out: MIC APAE001, APAE001 is ATCC27853
In short: as §1

[5] = test system: APAE006 (strain of P. aeruginosa in which all efflux pumps are inactivated); experiment: microbe, parasite or virus in culture; format: cell-based; details: Pseudomonas aeruginosa, read-out: MIC APAE006, P. aeruginosa, all efflux pumps inactivated
In short: as §2

AECO001 (ATCC25922) = experiment: MIC broth microdilution, AECO001; format: cell-based, E. coli; details: Escherichia coli, ATCC25922, read-out: MIC AECO001
In short: as §1

| Compound | MIC (AECO001 HSA AGP) [µg/mL] | MIC [1] [µg/mL] | MIC APAE006 + PMBN [2] | MIC [3] [µg/mL] | MIC [4] [µg/mL] | MIC (APAE001 (ATCC27853)) [µg/mL] | MIC [5] [µg/mL] | MIC (AECO001 (ATCC25922)) [µg/mL] |
| --- | --- | --- | --- | --- | --- | --- | --- | --- |
| C[C@@H](O)[C@H](NC(=O)c1ccc(C#Cc2ccc(C(F)(F)F)nc2)cc1)C(=O)NO [Example 133-10] | 2 to 16 (≈ 4.91 to 39.3 µM) | < 2 | A (MIC's of 2.0 μg/mL or less = A) | 16 to 64 (≈ 39.3 to 157 µM) | 16 to 64 (≈ 39.3 to 157 µM) | 16 to 64 (≈ 39.3 to 157 µM) | < 2 | 2 to 16 (≈ 4.91 to 39.3 µM) |
| C[C@@H](O)[C@H](NC(=O)c1ccc(C#Cc2cccc(OC(F)(F)F)c2)cc1)C(=O)NO [Example 133-11] | 16 to 64 (≈ 37.9 to 152 µM) | < 2 | A (MIC's of 2.0 μg/mL or less = A) | 16 to 64 (≈ 37.9 to 152 µM) | 16 to 64 (≈ 37.9 to 152 µM) | 16 to 64 (≈ 37.9 to 152 µM) | 2 to 16 (≈ 4.74 to 37.9 µM) | < 2 |
| C[C@@H](O)[C@H](NC(=O)c1ccc(C#Cc2ccc(O)cc2)cc1)C(=O)NO [Example 133-12] | 2 to 16 (≈ 5.64 to 45.2 µM) | < 2 | A (MIC's of 2.0 μg/mL or less = A) | 16 to 64 (≈ 45.2 to 181 µM) | 16 to 64 (≈ 45.2 to 181 µM) | < 2 | < 2 | < 2 |
| C[C@@H](N)[C@H](NC(=O)c1ccc(CCc2ccc(CN3CCOCC3)cc2)cc1)C(=O)NO [Example 136-1, N-((2S,3R)-3-amino-1-(hydroxyamino)-1-oxobutan-2-yl)-4-(4-(morpholinomethyl)phenethyl)benzamide] | 16 to 64 (≈ 36.3 to 145 µM) | < 2 | A (MIC's of 2.0 μg/mL or less = A) | 16 to 64 (≈ 36.3 to 145 µM) | 16 to 64 (≈ 36.3 to 145 µM) | 2 to 16 (≈ 4.54 to 36.3 µM) | < 2 | 2 to 16 (≈ 4.54 to 36.3 µM) |
| C[C@@H](NC(=O)CNC1CC1)[C@H](NC(=O)c1ccc(C#Cc2ccc(CN3CCOCC3)cc2)cc1)C(=O)NO [Example 137-2] | 2 to 16 (≈ 3.75 to 30 µM) | < 2 | A (MIC's of 2.0 μg/mL or less = A) | > 64 | 16 to 64 (≈ 30 to 120 µM) | 2 to 16 (≈ 3.75 to 30 µM) | < 2 | < 2 |
| C[C@@H](NC(=O)CNC1CC1)[C@H](NC(=O)c1ccc(C#Cc2ccc(CO)cc2)cc1)C(=O)NO [Example 137-3] | 2 to 16 (≈ 4.31 to 34.4 µM) | < 2 | A (MIC's of 2.0 μg/mL or less = A) | 16 to 64 (≈ 34.4 to 138 µM) | 16 to 64 (≈ 34.4 to 138 µM) | 2 to 16 (≈ 4.31 to 34.4 µM) | < 2 | < 2 |
| C[C@@H](N)[C@H](NC(=O)c1ccc(C#Cc2ccc(CCN)cc2)cc1)C(=O)NO [Example 137-4] | > 64 | 16 to 64 (≈ 42.1 to 168 µM) | C (MIC's of greater than 16.0 μg/mL to 64.0 μg/mL = C) | > 64 | > 64 | > 64 | 16 to 64 (≈ 42.1 to 168 µM) | > 64 |
| CC(C)(N)C(NC(=O)c1ccc(C#Cc2ccc(CO)cc2)cc1)C(=O)NO (centres unmarked) [Example 137-5] | 2 to 16 (≈ 5.24 to 41.9 µM) | < 2 | A (MIC's of 2.0 μg/mL or less = A) | 16 to 64 (≈ 41.9 to 168 µM) | 2 to 16 (≈ 5.24 to 41.9 µM) | < 2 | < 2 | < 2 |
| CC(C)(N)C(NC(=O)c1ccc(C#Cc2ccc(CNC3CC3)cc2)cc1)C(=O)NO (centres unmarked) [Example 137-6] | 2 to 16 (≈ 4.76 to 38 µM) | < 2 | A (MIC's of 2.0 μg/mL or less = A) | 16 to 64 (≈ 38 to 152 µM) | 2 to 16 (≈ 4.76 to 38 µM) | < 2 | < 2 | < 2 |
| CC(C)(N)C(NC(=O)c1ccc(C#Cc2ccc(CNCC(F)F)cc2)cc1)C(=O)NO (centres unmarked) [Example 137-7] | 2 to 16 (≈ 4.5 to 36 µM) | < 2 | A (MIC's of 2.0 μg/mL or less = A) | 16 to 64 (≈ 36 to 144 µM) | 2 to 16 (≈ 4.5 to 36 µM) | < 2 | < 2 | < 2 |
